According to paper PMC9124818 (Pharmacology Research & Perspectives, 2022):
Read-outs that look alike come from different tables or passages of the source.

Key:
OATP1B3 = molecular target: T1, OATP1B3 (Homo sapiens, UniProt Q9NPD5); test: Transporter inhibition, uptake of [3H]-estradiol-17β-glucuronide in HEK293 cells; assay type: in vitro ADME
T1 construct: host or cells: HEK293
T1 sequence (Q9NPD5 1-702): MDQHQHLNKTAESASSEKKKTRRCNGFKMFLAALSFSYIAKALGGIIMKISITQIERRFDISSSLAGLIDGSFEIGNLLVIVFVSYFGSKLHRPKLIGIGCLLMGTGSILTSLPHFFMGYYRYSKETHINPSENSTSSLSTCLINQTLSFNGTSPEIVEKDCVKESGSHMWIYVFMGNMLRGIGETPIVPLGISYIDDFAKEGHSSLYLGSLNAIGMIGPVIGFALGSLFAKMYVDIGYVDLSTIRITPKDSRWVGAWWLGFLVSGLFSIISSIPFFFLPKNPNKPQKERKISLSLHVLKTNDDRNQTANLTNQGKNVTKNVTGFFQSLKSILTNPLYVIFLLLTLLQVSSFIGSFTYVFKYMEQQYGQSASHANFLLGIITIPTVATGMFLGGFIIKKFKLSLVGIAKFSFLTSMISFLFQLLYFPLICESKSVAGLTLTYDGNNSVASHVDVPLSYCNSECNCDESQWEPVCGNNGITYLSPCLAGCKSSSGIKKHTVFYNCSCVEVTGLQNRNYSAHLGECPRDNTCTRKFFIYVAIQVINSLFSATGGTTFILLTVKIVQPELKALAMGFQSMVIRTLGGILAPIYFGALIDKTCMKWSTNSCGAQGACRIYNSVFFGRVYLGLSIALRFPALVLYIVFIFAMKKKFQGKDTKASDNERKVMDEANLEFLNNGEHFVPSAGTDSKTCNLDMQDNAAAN
Procedure: (§1) The test compound (FFA or nFFA) or the positive control substrate ([…], respectively) was added to the donor chamber. […] Cells were then washed, lysed with scintillation cocktail, and analyzed for the probe substrate with a MicroBeta scintillation counter (PerkinElmer, Hopkinton, MA). Transcellular transporter assay conditions are described in Supplemental Table 1. Calculation of IC50 values was based on bidirectional permeability of probe substrate with and without the inhibitor in MDCKII cells expressing BCRP and in Caco‐2 cells expressing P‐gp, and transporter‐dependent uptake of probe substrate in HEK293 cells expressing all other transporters (Supplemental Table 1).
(§2) The transporter-specific uptake of the probe substrate in cells was determined by subtracting the accumulation in the control cells from the accumulation in the transporter-expressing cells.

OATP1B1 = molecular target: T2, OATP1B1 (Homo sapiens, UniProt Q9Y6L6); test: as above; assay type: in vitro ADME
T2 construct: host or cells: HEK293
T2 sequence (Q9Y6L6 1-691): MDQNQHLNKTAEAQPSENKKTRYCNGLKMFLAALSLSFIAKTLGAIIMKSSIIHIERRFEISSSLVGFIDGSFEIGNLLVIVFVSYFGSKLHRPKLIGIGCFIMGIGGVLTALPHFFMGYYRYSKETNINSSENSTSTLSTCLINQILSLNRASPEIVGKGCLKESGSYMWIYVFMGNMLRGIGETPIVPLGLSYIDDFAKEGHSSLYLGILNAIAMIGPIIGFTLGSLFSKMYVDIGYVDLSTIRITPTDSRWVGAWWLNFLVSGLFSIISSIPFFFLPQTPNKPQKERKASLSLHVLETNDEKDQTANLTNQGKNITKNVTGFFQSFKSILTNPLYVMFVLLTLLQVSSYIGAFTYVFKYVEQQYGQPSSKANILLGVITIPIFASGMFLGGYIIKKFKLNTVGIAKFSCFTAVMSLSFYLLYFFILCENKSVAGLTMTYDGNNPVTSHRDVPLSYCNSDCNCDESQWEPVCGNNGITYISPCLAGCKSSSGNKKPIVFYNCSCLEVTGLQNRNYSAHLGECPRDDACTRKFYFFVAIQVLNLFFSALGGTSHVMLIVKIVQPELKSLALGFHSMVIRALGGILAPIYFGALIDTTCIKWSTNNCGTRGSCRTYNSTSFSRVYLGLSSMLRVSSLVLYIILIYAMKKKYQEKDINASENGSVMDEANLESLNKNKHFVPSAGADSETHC
Procedure: as §1, §2

CYP2D6 [1] = molecular target: T3, CYP2D6 (Homo sapiens, UniProt P10635); test: Direct CYP450 inhibition in human liver microsomes (dextromethorphan O-demethylation); settings: for Inhibition (%): direct inhibition, FFA up to 60 µM, nFFA up to 100 µM; for Ah (guidance term): mechanistic static model, Supplemental Table 2; for Basic model: R1: R1 = 1 + (Imax,u/Ki,u)
T3 sequence (P10635 whole entry): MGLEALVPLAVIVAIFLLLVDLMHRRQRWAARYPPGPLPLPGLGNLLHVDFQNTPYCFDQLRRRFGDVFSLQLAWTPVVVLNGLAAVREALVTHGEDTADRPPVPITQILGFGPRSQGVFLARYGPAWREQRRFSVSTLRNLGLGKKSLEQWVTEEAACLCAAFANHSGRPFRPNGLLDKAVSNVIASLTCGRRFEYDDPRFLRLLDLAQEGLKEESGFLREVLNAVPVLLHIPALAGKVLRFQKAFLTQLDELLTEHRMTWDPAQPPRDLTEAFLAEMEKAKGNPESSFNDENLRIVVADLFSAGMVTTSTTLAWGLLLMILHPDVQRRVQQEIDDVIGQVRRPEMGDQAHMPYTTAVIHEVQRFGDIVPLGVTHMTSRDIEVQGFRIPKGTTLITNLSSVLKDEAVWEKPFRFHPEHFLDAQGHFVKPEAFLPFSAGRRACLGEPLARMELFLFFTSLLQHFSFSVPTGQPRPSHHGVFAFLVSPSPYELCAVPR
Procedure: Microsomes from non‐transplantable human livers were prepared and characterized as outlined previously.[25], [26] A mixed‐gender pool of 200 individual human liver microsomal samples was used. Substrate concentrations and incubation conditions for determination of the kinetic constant (S50 or Km) used to select marker substrate concentrations were previously determined.[24]
Summary data are expressed as percent of control and mean ± standard deviation (SD) or standard error of the mean (SEM), as appropriate. Individual values from inhibition studies were processed with the laboratory information management system (LIMS) Galileo v3.3 (Thermo Fisher Scientific), which was used to calculate IC50 values from a four‐parameter logistic regression applied to percent inhibition versus concentration values. […] Based on FDA guidance for metabolism‐ and transporter‐mediated DDI studies,[15] basic kinetic models for transporter inhibition, CYP450 inhibition, and CYP450 induction were employed to calculate R, R1, and R3 values, respectively, and were compared to the respective predetermined threshold values listed in the guidance document.[15] […] Plasma protein binding data were used to estimate input parameters for fraction unbound to plasma proteins in the mechanistic static model (Supplemental Table 2). The fraction absorbed was assumed to be 100%, yielding the highest possible portal concentrations. […] Assays were performed in duplicate or triplicate according to previously published reports. Statistical analysis for replicates was not possible with n = 2 sample sizes.
This LIMS utilizes the Levenberg-Marquardt algorithm to perform nonlinear regression fitting of the data to the following 4-parameter sigmoidal-logistic IC50 equation:
As percent of control values are utilized, the Min is set to 0 and the Max is set to 100 (or other values, as appropriate). […] Therefore, when an IC50 value falls outside the concentration range studied, the IC50 values are reported to be greater than the highest concentrations of test article evaluated.

CYP2D6 [2] = molecular target: T3, CYP2D6; test: Time- and metabolism-dependent inhibition, 30-min preincubation with or without NADPH (dextromethorphan O-demethylation); settings: for IC50: human liver microsomes; for inhibition at 30 min: both, human, pooled human liver microsomes, pH 7.4, probe dextromethorphan (O-demethylation)
Procedure: These preincubations allowed assessment of the NADPH‐dependence of any time‐dependent CYP450 inhibition. Following the 30‐min preincubation, the NADPH‐generating system and/or marker substrate was added, and incubations were continued as described previously to measure residual CYP450 enzyme activity.

BCRP = molecular target: T4, BCRP (Homo sapiens, UniProt Q9UNQ0); test: Transporter inhibition, bidirectional permeability of prazosin in MDCKII-BCRP cells; assay type: in vitro ADME
T4 construct: host or cells: MDCKII
T4 sequence (Q9UNQ0 1-655): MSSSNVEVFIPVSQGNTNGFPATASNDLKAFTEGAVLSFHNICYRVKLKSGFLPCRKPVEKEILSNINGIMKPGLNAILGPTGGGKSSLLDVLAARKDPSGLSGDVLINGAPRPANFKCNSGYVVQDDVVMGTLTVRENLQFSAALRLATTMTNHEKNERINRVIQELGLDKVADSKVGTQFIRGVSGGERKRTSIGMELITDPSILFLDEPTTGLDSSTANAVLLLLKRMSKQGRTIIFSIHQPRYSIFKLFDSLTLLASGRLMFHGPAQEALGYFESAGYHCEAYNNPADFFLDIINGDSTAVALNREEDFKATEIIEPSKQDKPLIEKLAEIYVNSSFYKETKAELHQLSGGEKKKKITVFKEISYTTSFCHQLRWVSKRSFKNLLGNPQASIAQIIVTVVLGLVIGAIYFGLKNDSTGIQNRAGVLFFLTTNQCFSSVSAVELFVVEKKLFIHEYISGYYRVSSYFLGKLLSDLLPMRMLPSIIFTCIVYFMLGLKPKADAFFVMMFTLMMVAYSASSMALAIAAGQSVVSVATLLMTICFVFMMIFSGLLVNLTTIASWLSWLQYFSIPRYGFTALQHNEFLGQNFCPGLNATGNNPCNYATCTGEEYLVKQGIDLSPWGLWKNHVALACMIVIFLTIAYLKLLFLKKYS
Procedure: as §1
The net flux for human epithelial colorectal adenocarcinoma cells (Caco-2; P-gp) and MDCKII-BCRP inhibition determination was calculated according to the equation: […]

[3] = HEK293, probe [3H]-estradiol-17β-glucuronide 50 nM, read-out: IC50

SMILES: CCNC(C)Cc1cccc(C(F)(F)F)c1 (racemic) [FFA, (RS)‐ethyl(α‐methyl‐3‐trifluoromethylphenethyl)amine, reference compound]
- IC50 (OATP1B3): > 300 µM
- IC50 (OATP1B1): > 300 µM
- IC50 (CYP2D6 [1]): 4.7 ± 0.2 µM
- Ki (CYP2D6 [1]): 2.17 µM
- Inhibition (%) (CYP2D6 [1]; substrate dextromethorphan): 90%
- Ah (guidance term) (CYP2D6 [1]): 0.867
- Basic model: Potential for clinical inhibition (CYP2D6 [1]; substrate dextromethorphan): Yes (Potential to inhibit if R1 ≥ 1.02)
- Static mechanistic model: Potential for clinical inhibition (CYP2D6 [1]; substrate dextromethorphan): No (Potential to inhibit if AUCR ≥ 1.25)
- Basic model: R1 (CYP2D6 [1]; substrate dextromethorphan): 1.07
- IC50 (CYP2D6 [2]; IC50 (+ NADPH), 30-min preincubation in the presence of NADPH): 10 µM
- IC50 (CYP2D6 [2]; IC50 (- NADPH), 30-min preincubation in the absence of NADPH): 4.5 µM
- inhibition at 30 min (CYP2D6 [2]; % inhibition (+ NADPH), 30-min preincubation in the presence of NADPH): 82%
- inhibition at 30 min (CYP2D6 [2]; % inhibition (- NADPH), 30-min preincubation in the absence of NADPH): 89%
- IC50 (BCRP): > 100 µM

SMILES: CC(N)Cc1cccc(C(F)(F)F)c1.Cl (stereo not shown) [nFFA, [1‐(3‐trifluoromethyl)phenyl]propan‐2‐amine hydrochloride]
- IC50 (OATP1B3; [3]): > 50 µM
- IC50 (OATP1B1; [3]): > 50 µM
- IC50 (CYP2D6 [1]; direct inhibition (no preincubation), human liver microsomes, substrate dextromethorphan): 16 ± 1 µM
- Inhibition (%) (CYP2D6 [1]; substrate dextromethorphan): 82%
- Ah (guidance term) (CYP2D6 [1]): 0.988
- Ki (CYP2D6 [1]; read-out: Ki, u, IC50 divided by 2, assumes [S] = Km, adjusted for estimated unbound fraction in microsomes): 7.86 µM
- Basic model: Potential for clinical inhibition (CYP2D6 [1]; substrate dextromethorphan): No (Potential to inhibit if R1 ≥ 1.02)
- Static mechanistic model: Potential for clinical inhibition (CYP2D6 [1]; substrate dextromethorphan): No (Potential to inhibit if AUCR ≥ 1.25)
- Basic model: R1 (CYP2D6 [1]; substrate dextromethorphan): 1.01
- % inhibition (- NADPH) (CYP2D6 [2]; 30-min preincubation in the absence of NADPH): 82%
- % inhibition (+ NADPH) (CYP2D6 [2]; 30-min preincubation in the presence of NADPH): 80%
- IC50 (CYP2D6 [2]; read-out: IC50 (+ NADPH), 30-min preincubation in the presence of NADPH): 17 ± 1 µM
- IC50 (CYP2D6 [2]; read-out: IC50 (- NADPH), 30-min preincubation in the absence of NADPH): 15 ± 1 µM
- IC50 (BCRP; MDCKII, probe prazosin 1 µM, read-out: IC50): > 50 µM
